Assay results as given in patent publication US20240139349A1, “GADOLINIUM CHELATE, PREPARATION METHOD THEREFOR, AND APPLICATION THEREOF” (SUZHOU ZHECI PHARMACEUTICAL TECHNOLOGY CO., LTD., priority 2021, published 2024).
Read-outs that look alike come from different tables or passages of the source.

Experiment: In vitro MRI determination of longitudinal and transverse relaxation rates (r1, r2) of aqueous solutions
Type: physicochemical
Details: for r1 (longitudinal relaxation rate) / r2 (transverse relaxation rate): aqueous solutions
[1] = H0 3.0 T clinical MRI system (Philips, Ingenia)
[2] = H0 7.0 T small animal MRI system

Compound	r2/r1 (H0 3.0 T)	r1 (longitudinal relaxation rate) [1] [M⁻¹ s⁻¹]	r2 (transverse relaxation rate) [1] [M⁻¹ s⁻¹]	r1 (longitudinal relaxation rate) [2] [M⁻¹ s⁻¹]	r2/r1
O=C([O-])CN1CCN(CC(=O)[O-])CCN([C@H](CO)[C@H](O)CO)CCN(CC(=O)[O-])CC1.[Gd+3] (racemic) [Gadavist, Gd-BT-DO3A]	1.07 ± 0.03	4600 ± 90	4900 ± 40	3770	–
O=[N+]([O-])[O-].O=[N+]([O-])[O-].O=[N+]([O-])[O-].[Gd+3] [Gd(NO3)3, gadolinium nitrate]	–	11390 ± 250	12040 ± 310	8920	1.06 ± 0.006
O=C([O-])CN(CCN(CC(=O)[O-])CC(=O)O)CCN(CC(=O)[O-])CC(=O)O.[Gd+3] [Magnevist, Gd-DTPA]	1.03 ± 0.03	4880 ± 120	5000 ± 100	3680	–
Gd-BSA: gadolinium chelate of bovine serum albumin	1.72±0.02	34880 ± 1060	59920 ± 1570	–	–
